# In PubChem BioAssay AID1963980 (Molecular Pharmacology Branch, DTP, NCI, 2024):
# System: 475296-252-R-J1-PDC spheroid viability
# Experiment: Anticancer human tumor 475296-252-R-J1-PDC patient-derived rectal carcinoma cell line growth inhibition [PI3K]
# Details: spheroids with HUVEC and MSC; for IC50: curve of first compound; for viability, T/C: stronger effect = lower value
# Description: Combinatorial screen of targeted agents with the PI3K inhibitors inavolisib, alpelisib, duvelisib, and copanlisib in multi-cell type tumor spheroids
# A high-throughput screen of multi-cell type tumor spheroids was designed to identify active combinations of targeted small molecules and PI3K pathway inhibitors. Complex spheroids include a stromal component modeled by human endothelial cells (HUVEC) and fibroblasts modeled by human mesenchymal stem cells (MSCs). The concentration ranges selected for each drug and investigational agent were based upon clinically achievable concentrations if the clinical Cmax of the agent was known.
# Compounds. The drugs and investigational agents: inavolisib (NSC800729), alpelisib (NSC765974), duvelisib (NSC772469), copanlisib (NSC816437), ipatasertib (NSC767898), afuresertib (NSC778305), talazoparib (NSC767125), sapanisertib (NSC764658), selumetinib (NSC741078), tovorafenib (DAY101, NSC766906), vemurafenib (NSC761431), ravoxertinib (NSC781343), sotorasib (NSC818433), MRTX1133 (NSC 836407), abemaciclib (NSC 768073), palbociclib (NSC758247), venetoclax (NSC 766270), SY5609 (NSC837396), enzalutamide (NSC755605), and darolutamide (NSC825331), were obtained from the National Cancer Institute (NCI) Developmental Therapeutics Program Chemical Repository. The FDA-approved anticancer drug set is available from the NCI Developmental Therapeutics Program. […] The stock solutions were prepared in dimethyl sulfoxide (DMSO, Sigma-Aldrich, St. Louis, MO, cat. D2650) at 800-fold the tested concentration and stored at -70 degrees C prior to their use. All drugs and investigational agents were tested over a range starting from a high concentration at or near the clinical Cmax and decreasing in half-log increments. If the clinical Cmax for an agent had not been determined, the highest concentration tested was 10 microM.
# Cell Culture. All cells were maintained in an incubator at 37 degrees C and 5% CO2 with 95% humidity. The PDC lines were cultured according to standard operating procedures established by the NCI PDMR (https://pdmr.cancer.gov/sops/default.htm). All PDCs were thawed and cultured in Matrigel-coated flasks prepared with a working solution of 1X Ham's F-12 nutrient mix, without supplementation (Invitrogen, Waltham, MA, cat. 11765054), 100 U/mL penicillin-streptomycin (Invitrogen, cat. 15140122), and 2.5% Matrigel (Corning Inc., Corning, NY, cat. 354248) for the first three passages. The 354836-022-R-J1-PDC, 475296-252-R-J1-PDC, and 997726-040-R-J2-PDC lines were cultured in 6A media, which includes advanced DMEM/F-12 (Thermo Fisher Scientific, cat. 12634028), 10 mM HEPES (Thermo Fisher Scientific, cat. 15630080), 1X GlutaMAX supplement (Thermo Fisher Scientific, cat. 35050061), 0.1 mg/mL primocin (InvivoGen, San Diego, CA, cat. ant-pm-2), 10% defined fetal bovine serum, heat inactivated (HyClone Laboratories Inc., Logan, UT, cat. SH30070.03HI), 50% L-WRN conditioned media (ATCC, cat. CRL-3276), 1.25 mM N-Acetyl-L-cysteine (Sigma-Aldrich, cat. A9165), 10 mM nicotinamide (Sigma-Aldrich, cat. N0636), 1X B-27 supplement (Thermo Fisher Scientific, cat. 17504044), 1X N-2 supplement (Thermo Fisher Scientific, cat. 17502048), and 10 microM Y-27632 dihydrochloride (Tocris Bioscience, Bristol, United Kingdom, cat. 1254). The 624824-186-R-J2-PDC line was cultured in 6C/Colon 1B media, which includes all 6A media components plus 50 ng/mL human EGF recombinant protein (Thermo Fisher Scientific, cat. PHG0311). […]
# [1] = second compound 0.00316 µM, first compound 0.0316 µM
# [2] = second compound 0.00316 µM, first compound 0.1 µM
# [3] = second compound 0.01 µM, first compound 0.0316 µM
# [4] = second compound 0.01 µM, first compound 0.1 µM
# [5] = second compound 0.0316 µM, first compound 0.0316 µM
# [6] = second compound 0.0316 µM, first compound 0.1 µM
# [7] = second compound 0.1 µM, first compound 0.0316 µM
# [8] = second compound 0.1 µM, first compound 0.1 µM
# [9] = second compound 0.316 µM, first compound 0.0316 µM
# [10] = second compound 0.316 µM, first compound 0.1 µM
# [11] = second compound 1 µM, first compound 0.0316 µM
# [12] = second compound 1 µM, first compound 0.1 µM
# 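Further: spheroids exposed to agents for seven days before readout.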
smiles,measurement,setting,value
CC(=O)c1c(C)c2cnc(Nc3ccc(N4CCNCC4)cn3)nc2n(C2CCCC2)c1=O + CC(Nc1ccc2c(c1)OCCn1cc(N3C(=O)OCC3C(F)F)nc1-2)C(N)=O,IC50,second compound 0.00316 µM,> 0.1 µM
same,IC50,second compound 0.01 µM,> 0.1 µM
same,IC50,second compound 0.0316 µM,> 0.1 µM
same,IC50,second compound 0.1 µM,> 0.1 µM
same,IC50,second compound 0.316 µM,> 0.1 µM
same,IC50,second compound 1 µM,> 0.1 µM
same,"viability, T/C","second compound 0.00316 µM, first compound 0.000316 µM",93.5%
same,"viability, T/C","second compound 0.00316 µM, first compound 0.001 µM",86.6%
same,"viability, T/C","second compound 0.00316 µM, first compound 0.00316 µM",101%
same,"viability, T/C","second compound 0.00316 µM, first compound 0.01 µM",93.5%
same,"viability, T/C",[1],119%
same,"viability, T/C",[2],97.2%
same,"viability, T/C","second compound 0.01 µM, first compound 0.000316 µM",102%
same,"viability, T/C","second compound 0.01 µM, first compound 0.001 µM",91.3%
same,"viability, T/C","second compound 0.01 µM, first compound 0.00316 µM",94%
same,"viability, T/C","second compound 0.01 µM, first compound 0.01 µM",83.2%
same,"viability, T/C",[3],97%
same,"viability, T/C",[4],100%
same,"viability, T/C","second compound 0.0316 µM, first compound 0.000316 µM",97.5%
same,"viability, T/C","second compound 0.0316 µM, first compound 0.001 µM",101%
same,"viability, T/C","second compound 0.0316 µM, first compound 0.00316 µM",91.3%
same,"viability, T/C","second compound 0.0316 µM, first compound 0.01 µM",93.5%
same,"viability, T/C",[5],104%
same,"viability, T/C",[6],110%
same,"viability, T/C","second compound 0.1 µM, first compound 0.000316 µM",90.4%
same,"viability, T/C","second compound 0.1 µM, first compound 0.001 µM",91.8%
same,"viability, T/C","second compound 0.1 µM, first compound 0.00316 µM",100%
same,"viability, T/C","second compound 0.1 µM, first compound 0.01 µM",103%
same,"viability, T/C",[7],96.1%
same,"viability, T/C",[8],88.6%
same,"viability, T/C","second compound 0.316 µM, first compound 0.000316 µM",93.5%
same,"viability, T/C","second compound 0.316 µM, first compound 0.001 µM",96.2%
same,"viability, T/C","second compound 0.316 µM, first compound 0.00316 µM",83%
same,"viability, T/C","second compound 0.316 µM, first compound 0.01 µM",85.4%
same,"viability, T/C",[9],109%
same,"viability, T/C",[10],91.7%
same,"viability, T/C","second compound 1 µM, first compound 0.000316 µM",85.4%
same,"viability, T/C","second compound 1 µM, first compound 0.001 µM",90.1%
same,"viability, T/C","second compound 1 µM, first compound 0.00316 µM",87.2%
same,"viability, T/C","second compound 1 µM, first compound 0.01 µM",91.2%
same,"viability, T/C",[11],93.2%
same,"viability, T/C",[12],100%
CNC(=O)c1ccc(N2C(=S)N(c3ccc(C#N)c(C(F)(F)F)c3)C(=O)C2(C)C)cc1F + CC(Nc1ccc2c(c1)OCCn1cc(N3C(=O)OCC3C(F)F)nc1-2)C(N)=O,IC50,second compound 0.00316 µM,> 10 µM
same,IC50,second compound 0.01 µM,> 10 µM
same,IC50,second compound 0.0316 µM,> 10 µM
same,IC50,second compound 0.1 µM,> 10 µM
same,IC50,second compound 0.316 µM,> 10 µM
same,IC50,second compound 1 µM,> 10 µM
same,"viability, T/C",[1],98.4%
same,"viability, T/C",[2],85%
same,"viability, T/C","second compound 0.00316 µM, first compound 0.316 µM",102%
same,"viability, T/C","second compound 0.00316 µM, first compound 1 µM",84.3%
same,"viability, T/C","second compound 0.00316 µM, first compound 3.16 µM",100%
same,"viability, T/C","second compound 0.00316 µM, first compound 10 µM",104%
same,"viability, T/C",[3],95.4%
same,"viability, T/C",[4],90.4%
same,"viability, T/C","second compound 0.01 µM, first compound 0.316 µM",102%
same,"viability, T/C","second compound 0.01 µM, first compound 1 µM",93%
same,"viability, T/C","second compound 0.01 µM, first compound 3.16 µM",99.3%
same,"viability, T/C","second compound 0.01 µM, first compound 10 µM",85.1%
same,"viability, T/C",[5],94.6%
same,"viability, T/C",[6],87.7%
same,"viability, T/C","second compound 0.0316 µM, first compound 0.316 µM",94.2%
same,"viability, T/C","second compound 0.0316 µM, first compound 1 µM",99.9%
same,"viability, T/C","second compound 0.0316 µM, first compound 3.16 µM",96.9%
same,"viability, T/C","second compound 0.0316 µM, first compound 10 µM",103%
same,"viability, T/C",[7],87.1%
same,"viability, T/C",[8],93.6%
same,"viability, T/C","second compound 0.1 µM, first compound 0.316 µM",90%
same,"viability, T/C","second compound 0.1 µM, first compound 1 µM",100%
same,"viability, T/C","second compound 0.1 µM, first compound 3.16 µM",97.5%
same,"viability, T/C","second compound 0.1 µM, first compound 10 µM",91.3%
same,"viability, T/C",[9],87.7%
same,"viability, T/C",[10],93.8%
same,"viability, T/C","second compound 0.316 µM, first compound 0.316 µM",84.9%
same,"viability, T/C","second compound 0.316 µM, first compound 1 µM",94.3%
same,"viability, T/C","second compound 0.316 µM, first compound 3.16 µM",92.5%
same,"viability, T/C","second compound 0.316 µM, first compound 10 µM",90.9%
same,"viability, T/C",[11],98.1%
same,"viability, T/C",[12],89%
same,"viability, T/C","second compound 1 µM, first compound 0.316 µM",91.3%
same,"viability, T/C","second compound 1 µM, first compound 1 µM",84%
same,"viability, T/C","second compound 1 µM, first compound 3.16 µM",94.3%
same,"viability, T/C","second compound 1 µM, first compound 10 µM",80.8%
